Results as given in patent US8853203B2, “Diazepinone derivatives” (Novartis AG, priority 2012, dated 2014).

Experiments:
[1] = molecular target: human mGluR5a receptors (Homo sapiens (Human), UniProt P41594); assay: inhibition of glutamate-induced elevation of intracellular calcium in L(tk-) cells expressing human mGluR5a; format: cell-based; conditions: for IC50: glutamate-induced intracellular calcium elevation, L(tk-) cells expressing human mGluR5a, read-out: mGluR5 IC50; for inhibition at 10 µM: LTK, read-out: mGluR5 % inhibition at 10 μM
From the text: Activity of compounds of the present invention was examined by determination to what extent the glutamate-induced elevation of the intracellular calcium concentration in L(tk-) cells expressing human mGluR5a receptors (see L. P. Daggett et al., Neuropharm. Vol. 34, pages 871-886, 1995) is inhibited by utilizing methods as described e.g. by L. P. Daggett et al., Neuropharm. Vol. 34, pages 871-886 (1995) and P. J. Flor et al., J. Neurochem. Vol. 67, pages 58-63 (1996).

[2] = molecular target: human mGluR1 (Homo sapiens (Human), UniProt Q13255); assay: mGluR1 antagonism, L-glutamate induced intracellular calcium increase (FLIPR) in CHO cells stably expressing human mGluR1; format: cell-based; conditions: for IC50: L-glutamate induced intracellular calcium, CHO cells expressing human mGluR1, FLIPR
From the text: Activity of compounds of the present invention with respect to mGluR1 antagonism was examined by an assay based on measurements of L-glutamate induced intracellular calcium increases using a 96 well plate-based Fluorometric Imaging Plate Reader (FLIPR), and CHO cells stably expressing human mGluR1. L-glutamate induced robust calcium responses via human mGluR1 in a concentration-dependent manner and in the low micromolar range. The table below represents IC50 values of the inhibition of the glutamate-induced elevation of the intracellular calcium concentration.

Sequence of human mGluR5a receptors (P41594 other isoform, or with tags, fused parts or gaps): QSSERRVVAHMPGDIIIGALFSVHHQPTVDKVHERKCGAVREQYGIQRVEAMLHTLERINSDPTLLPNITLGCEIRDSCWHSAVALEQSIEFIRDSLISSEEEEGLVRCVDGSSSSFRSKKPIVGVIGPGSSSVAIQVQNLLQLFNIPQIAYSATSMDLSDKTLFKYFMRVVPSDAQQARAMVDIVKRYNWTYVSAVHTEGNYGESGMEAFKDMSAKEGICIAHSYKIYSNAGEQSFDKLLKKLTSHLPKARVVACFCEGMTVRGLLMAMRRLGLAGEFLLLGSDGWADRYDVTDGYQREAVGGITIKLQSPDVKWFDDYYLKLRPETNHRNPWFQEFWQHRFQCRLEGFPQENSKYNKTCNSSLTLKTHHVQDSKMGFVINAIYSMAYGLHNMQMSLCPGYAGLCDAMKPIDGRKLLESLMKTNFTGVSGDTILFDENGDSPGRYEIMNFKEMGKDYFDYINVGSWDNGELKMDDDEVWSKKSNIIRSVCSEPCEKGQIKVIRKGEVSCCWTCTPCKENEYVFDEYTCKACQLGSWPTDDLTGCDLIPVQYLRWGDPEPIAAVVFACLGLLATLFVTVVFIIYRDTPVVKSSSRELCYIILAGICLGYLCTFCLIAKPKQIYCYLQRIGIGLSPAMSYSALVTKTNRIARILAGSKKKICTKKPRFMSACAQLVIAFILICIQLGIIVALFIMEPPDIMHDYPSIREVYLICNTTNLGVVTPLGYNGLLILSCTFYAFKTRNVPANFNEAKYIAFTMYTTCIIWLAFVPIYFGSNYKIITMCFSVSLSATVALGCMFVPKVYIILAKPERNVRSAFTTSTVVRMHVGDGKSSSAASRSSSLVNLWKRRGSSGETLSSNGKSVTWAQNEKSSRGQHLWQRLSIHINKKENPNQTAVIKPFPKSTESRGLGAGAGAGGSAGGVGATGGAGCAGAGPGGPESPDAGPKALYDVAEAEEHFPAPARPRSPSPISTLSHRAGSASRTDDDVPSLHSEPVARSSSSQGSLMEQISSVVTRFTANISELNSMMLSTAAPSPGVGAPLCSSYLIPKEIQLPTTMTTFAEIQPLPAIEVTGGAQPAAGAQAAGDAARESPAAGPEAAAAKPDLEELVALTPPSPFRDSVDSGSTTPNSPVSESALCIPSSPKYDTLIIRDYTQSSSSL
Sequence of human mGluR1 (Q13255 19-1194): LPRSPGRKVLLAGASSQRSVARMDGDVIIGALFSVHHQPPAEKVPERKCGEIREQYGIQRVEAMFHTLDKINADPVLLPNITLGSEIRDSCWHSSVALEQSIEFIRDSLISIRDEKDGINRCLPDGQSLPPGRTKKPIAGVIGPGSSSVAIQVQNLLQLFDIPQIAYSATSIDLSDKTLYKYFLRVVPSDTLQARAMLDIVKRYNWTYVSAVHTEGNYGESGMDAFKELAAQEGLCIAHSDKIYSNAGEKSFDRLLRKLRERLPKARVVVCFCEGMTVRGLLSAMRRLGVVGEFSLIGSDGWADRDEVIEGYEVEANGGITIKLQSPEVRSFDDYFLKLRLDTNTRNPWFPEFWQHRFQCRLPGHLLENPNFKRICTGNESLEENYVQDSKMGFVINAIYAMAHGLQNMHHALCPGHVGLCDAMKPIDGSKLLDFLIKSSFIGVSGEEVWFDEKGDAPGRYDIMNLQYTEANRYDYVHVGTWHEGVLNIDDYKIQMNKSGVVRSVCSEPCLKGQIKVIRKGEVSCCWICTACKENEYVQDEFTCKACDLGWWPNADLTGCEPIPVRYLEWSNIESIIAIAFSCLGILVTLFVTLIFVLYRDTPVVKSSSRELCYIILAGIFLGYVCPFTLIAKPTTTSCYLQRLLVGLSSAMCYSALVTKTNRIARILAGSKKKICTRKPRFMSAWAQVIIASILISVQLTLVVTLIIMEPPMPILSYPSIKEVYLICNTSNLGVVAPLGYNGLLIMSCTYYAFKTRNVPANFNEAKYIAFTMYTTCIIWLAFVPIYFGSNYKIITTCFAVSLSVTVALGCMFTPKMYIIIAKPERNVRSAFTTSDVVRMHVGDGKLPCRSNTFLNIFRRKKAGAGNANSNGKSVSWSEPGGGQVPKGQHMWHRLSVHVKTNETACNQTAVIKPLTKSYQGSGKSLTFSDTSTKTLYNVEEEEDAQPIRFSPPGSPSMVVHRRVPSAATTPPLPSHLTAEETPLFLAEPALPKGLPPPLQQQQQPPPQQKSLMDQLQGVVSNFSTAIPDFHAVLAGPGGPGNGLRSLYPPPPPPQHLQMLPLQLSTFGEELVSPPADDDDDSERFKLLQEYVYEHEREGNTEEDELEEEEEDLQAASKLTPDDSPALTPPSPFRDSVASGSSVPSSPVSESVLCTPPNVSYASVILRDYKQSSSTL

Compound | IC50 [1] | IC50 [2] | inhibition at 10 µM [1] | inhibition at 10 µM ([2]; CHO)
CCc1cn(C2=NCC(=O)N3CCc4c(cccc4C4CCCO4)C3=C2)cn1 (racemic) [Example 111, 2-(4-ethyl-1H-imidazol-1-yl)-9-(tetrahydrofuran-2-yl)-7,8-dihydro-[1,4]diazepino[7,1-a]isoquinolin-5(4H)-one] | 0.053 µM | 9.3 µM | – | –
CCc1cn(C2=NCC(=O)N3CCc4c(cccc4C4(O)COC4)C3=C2)cn1 [2-(4-ethyl-1H-imidazol-1-yl)-9-(3-hydroxyoxetan-3-yl)-7,8-dihydro-[1,4]diazepino[7,1-a]isoquinolin-5(4H)-one] | – | – | < 20% | –
Cc1ccnn1C1=NCC(=O)N2CCc3c(Cl)cccc3C2=C1 [9-chloro-2-(5-methyl-1H-pyrazol-1-yl)-7,8-dihydro-[1,4]diazepino[7,1-a]isoquinolin-5(4H)-one] | – | – | < 20% | –
COc1cccc(C2=NCC(=O)N3CCc4c(OC)cccc4C3=C2)c1 [Example 1, 9-methoxy-2-(3-methoxyphenyl)-7,8-dihydro-[1,4]diazepino[7,1-a]isoquinolin-5(4H)-one] | 0.327 µM | 6.4 µM | – | –
O=C1CN=C(c2cccs2)C=C2c3cccc(Cl)c3CCN12 [Example 2, 9-chloro-2-(thiophen-2-yl)-7,8-dihydro-[1,4]diazepino[7,1-a]isoquinolin-5(4H)-one] | 0.09 µM | 0.027 µM | – | –
COc1cccc(C2=NCC(=O)N3CCc4c(Cl)cccc4C3=C2)c1 [Example 3, 9-chloro-2-(3-methoxyphenyl)-7,8-dihydro-[1,4]diazepino[7,1-a]isoquinolin-5(4H)-one] | 0.22 µM | 0.585 µM | – | –
O=C1CN=C(c2cccs2)C=C2c3cccc(C(F)(F)F)c3CCN12 [Example 4, 2-(thiophen-2-yl)-9-(trifluoromethyl)-7,8-dihydro-[1,4]diazepino[7,1-a]isoquinolin-5(4H)-one] | 0.18 µM | 0.15 µM | – | –
COc1cccc2c1CCN1C(=O)CN=C(c3cccs3)C=C21 [Example 5, 9-methoxy-2-(thiophen-2-yl)-7,8-dihydro-[1,4]diazepino[7,1-a]isoquinolin-5(4H)-one] | 0.044 µM | 0.015 µM | – | –
COc1cc(C2=NCC(=O)N3CCc4c(Cl)cccc4C3=C2)ccn1 [Example 6, 9-chloro-2-(2-methoxypyridin-4-yl)-7,8-dihydro-[1,4]diazepino[7,1-a]isoquinolin-5(4H)-one] | 0.075 µM | 3.05 µM | – | –
COc1cccc2c1CCN1C(=O)CN=C(c3ccc(C)o3)C=C21 [Example 7, 9-methoxy-2-(5-methylfuran-2-yl)-7,8-dihydro-[1,4]diazepino[7,1-a]isoquinolin-5(4H)-one] | 0.024 µM | 0.21 µM | – | –
COc1cc(C2=NCC(=O)N3CCc4c(OC)cccc4C3=C2)ccn1 [Example 8, 9-methoxy-2-(2-methoxypyridin-4-yl)-7,8-dihydro-[1,4]diazepino[7,1-a]isoquinolin-5(4H)-one] | 0.022 µM | 4.9 µM | – | –
COc1cccc(C2=NCC(=O)N3CCc4c(OC)cccc4C3=C2)n1 [Example 9, 9-methoxy-2-(6-methoxypyridin-2-yl)-7,8-dihydro-[1,4]diazepino[7,1-a]isoquinolin-5(4H)-one] | 0.6 µM | > 10 µM | – | –
CCc1cc(C2=NCC(=O)N3CCc4c(OC)cccc4C3=C2)ccn1 [Example 10, 2-(2-ethylpyridin-4-yl)-9-methoxy-7,8-dihydro-[1,4]diazepino[7,1-a]isoquinolin-5(4H)-one] | 0.345 µM | 0.94 µM | – | –
COc1cccc2c1CCN1C(=O)CN=C(c3ccn(C)n3)C=C21 [Example 11, 9-methoxy-2-(1-methyl-1H-pyrazol-3-yl)-7,8-dihydro-[1,4]diazepino[7,1-a]isoquinolin-5(4H)-one] | 0.17 µM | 0.69 µM | – | –
COCCOc1cccc(C2=NCC(=O)N3CCc4c(OC)cccc4C3=C2)c1 [Example 12, 9-methoxy-2-(3-(2-methoxyethoxy)phenyl)-7,8-dihydro-[1,4]diazepino[7,1-a]isoquinolin-5(4H)-one] | 0.046 µM | 1.3 µM | – | –
COc1cccc(C2=NCC(=O)N3CCc4c(ccc(Cl)c4OC)C3=C2)c1 [Example 13, 10-chloro-9-methoxy-2-(3-methoxyphenyl)-7,8-dihydro-[1,4]diazepino[7,1-a]isoquinolin-5(4H)-one] | 0.082 µM | 0.53 µM | – | –
COc1cccc(C2=NCC(=O)N3CCc4c(OC)cc(Cl)cc4C3=C2)c1 [Example 14, 11-chloro-9-methoxy-2-(3-methoxyphenyl)-7,8-dihydro-[1,4]diazepino[7,1-a]isoquinolin-5(4H)-one] | 0.55 µM | > 10 µM | – | –

Compound | IC50 [1] | IC50 [2] | inhibition at 10 µM [1] | inhibition at 10 µM ([2]; CHO)
CCOc1cccc(C2=NCC(=O)N3C(=C2)c2cccc(OC)c2CC3C)c1 (centres unmarked) [Example 15, 2-(3-ethoxyphenyl)-9-methoxy-7-methyl-7,8-dihydro-[1,4]diazepino[7,1-a]isoquinolin-5(4H)-one] | – | – | 42% | 44%
COc1cccc2c1CCN1C(=O)CN=C(c3cccc(C(F)(F)F)c3)C=C21 [Example 16, 9-methoxy-2-(3-(trifluoromethyl)phenyl)-7,8-dihydro-[1,4]diazepino[7,1-a]isoquinolin-5(4H)-one] | 2.2 µM | 3.5 µM | – | –
COc1ccc(C2=NCC(=O)N3CCc4c(OC)cccc4C3=C2)cc1 [Example 17, 9-methoxy-2-(4-methoxyphenyl)-7,8-dihydro-[1,4]diazepino[7,1-a]isoquinolin-5(4H)-one] | 2.2 µM | > 10 µM | – | –
COc1ccc(C)c(C2=NCC(=O)N3CCc4c(OC)cccc4C3=C2)c1 [Example 18, 9-methoxy-2-(5-methoxy-2-methylphenyl)-7,8-dihydro-[1,4]diazepino[7,1-a]isoquinolin-5(4H)-one] | 4.1 µM | > 10 µM | – | –
O=C1CN=C(c2cccs2)C=C2c3cccc(F)c3CCN12 [Example 19, 9-fluoro-2-(thiophen-2-yl)-7,8-dihydro-[1,4]diazepino[7,1-a]isoquinolin-5(4H)-one] | 4.5 µM | 0.8 µM | – | –
COc1cccc(C2=NCC(=O)N3CCc4c(Br)cccc4C3=C2)c1 [Example 20, 9-bromo-2-(3-methoxyphenyl)-7,8-dihydro-[1,4]diazepino[7,1-a]isoquinolin-5(4H)-one] | 1.2 µM | 2.8 µM | – | –
COc1cccc2c1CCN1C(=O)CN=C(c3ccnc(N(C)C)c3)C=C21 [Example 21, 2-(2-(dimethylamino)pyridin-4-yl)-9-methoxy-7,8-dihydro-[1,4]diazepino[7,1-a]isoquinolin-5(4H)-one] | 3.9 µM | 5.2 µM | – | –
COc1cc(C2=NCC(=O)N3CCc4c(cccc4N4CCOCC4)C3=C2)ccn1 [Example 22, 2-(2-methoxypyridin-4-yl)-9-morpholino-7,8-dihydro-[1,4]diazepino[7,1-a]isoquinolin-5(4H)-one] | 0.071 µM | > 10 µM | – | –
Cc1ccc(C2=NCC(=O)N3CCc4c(cccc4N4CCOCC4)C3=C2)o1 [Example 23, 2-(5-methylfuran-2-yl)-9-morpholino-7,8-dihydro-[1,4]diazepino[7,1-a]isoquinolin-5(4H)-one] | 0.022 µM | > 10 µM | – | –
Cn1ccc(C2=NCC(=O)N3CCc4c(cccc4N4CCOCC4)C3=C2)n1 [Example 24, 2-(1-methyl-1H-pyrazol-3-yl)-9-morpholino-7,8-dihydro-[1,4]diazepino[7,1-a]isoquinolin-5(4H)-one] | 0.035 µM | > 10 µM | – | –
Cn1cc(C2=NCC(=O)N3CCc4c(cccc4N4CCOCC4)C3=C2)cn1 [Example 25, 2-(1-methyl-1H-pyrazol-4-yl)-9-morpholino-7,8-dihydro-[1,4]diazepino[7,1-a]isoquinolin-5(4H)-one] | 0.066 µM | > 10 µM | – | –
COc1cccc(C2=NCC(=O)N3CCc4c(cccc4C(C)(C)O)C3=C2)c1 [Example 26, 9-(2-hydroxypropan-2-yl)-2-(3-methoxyphenyl)-7,8-dihydro-[1,4]diazepino[7,1-a]isoquinolin-5(4H)-one] | 0.235 µM | > 10 µM | – | –
Cn1ccc(C2=NCC(=O)N3CCc4c(cccc4C(C)(C)O)C3=C2)n1 [Example 27, 9-(2-hydroxypropan-2-yl)-2-(1-methyl-1H-pyrazol-3-yl)-7,8-dihydro-[1,4]diazepino[7,1-a]isoquinolin-5(4H)-one] | 0.437 µM | > 10 µM | – | –
O=C1CN=C(c2ccco2)C=C2c3cccc(-c4ccncc4)c3CCN12 [Example 28, 2-(furan-2-yl)-9-(pyridin-4-yl)-7,8-dihydro-[1,4]diazepino[7,1-a]isoquinolin-5(4H)-one] | 0.08 µM | 4.8 µM | – | –
O=C1CN=C(c2cccs2)C=C2c3cccc(Br)c3CCN12 [Example 29, 9-bromo-2-(thiophen-2-yl)-7,8-dihydro-[1,4]diazepino[7,1-a]isoquinolin-5(4H)-one] | 0.09 µM | 0.008 µM | – | –
COc1cccc(C2=NCC(=O)N3CCc4c(I)cccc4C3=C2)c1 [Example 30, 9-iodo-2-(3-methoxyphenyl)-7,8-dihydro-[1,4]diazepino[7,1-a]isoquinolin-5(4H)-one] | 0.15 µM | 1.4 µM | – | –
O=C1CN=C(n2cnc(C3CCC3)n2)C=C2c3cccc(-c4ccc(F)nc4)c3CCN12 [Example 99h, 2-(3-cyclobutyl-1H-1,2,4-triazol-1-yl)-9-(6-fluoropyridin-3-yl)-7,8-dihydro-[1,4]diazepino[7,1-a]isoquinolin-5(4H)-one] | 0.038 µM | – | – | –
